Measurements from US6538107B1, “G protein coupled receptor protein production, and use thereof” (Takeda Chemical Industries, Ltd., priority 1994, dated 2003).

System: oocytes injected with H2O
Assay: Electrophysiological measurement in control Xenopus oocytes injected with H2O instead of pMAH2-17 cRNA
Format: cell-based
Details: ATP stimulation, initial membrane potential −60 mV

Nc1ncnc2c1ncn2[C@@H]1O[C@H](COP(=O)(O)OP(=O)(O)OP(=O)(O)O)[C@@H](O)[C@H]1O [ATP, Adenosine triphosphate]
inward currents (current changes of the membrane) evoked by ATP: such a current was not observed
